# Results taken from paper PMC8470881, “Membrane Interactions of Latarcins: Antimicrobial Peptides from Spider Venom” (International Journal of Molecular Sciences, 2021).
# What was measured:
# [1] = Circular dichroism spectroscopy (secondary structure); type: physicochemical; settings: for % Helix (CD): CD in DMPC/DMPG (7/3) SUVs, P/L = 1:50, 10 mM phosphate buffer pH 7.0, 30 °C, peptide 29.3 μM, deconvolution with CDSSTR, CONTIN-LL, SELCON-3
# From the text: Next, we compared the secondary structure of the full set of latarcins in the presence of lipid membranes, for which there are no complete data available yet.
# The CD line shapes (Figure 2) were deconvoluted to estimate the secondary structure contributions (Supplementary Table S1) using the CDSSTR, CONTIN-LL, and SELCON-3 algorithms provided on the DICHROWEB online server as described previously. […] In peptides containing a high proportion of aromatic residues, such shifts of the long-wavelength band are well documented.
# Small unilamellar vesicles (SUVs) for the CD measurements were prepared as follows. Weighed amounts of the lipid powders (DMPC, DMPG) were dissolved in chloroform/methanol 1/1 (v/v) to obtain 5 mg/mL stock solutions. For obtaining mixed DMPC/DMPG liposomes (7/3 molar ratio), the appropriate aliquots of these stock solutions were pipetted in a glass vial and thoroughly vortexed. The organic solvents were removed under a gentle stream of nitrogen gas, followed by 3 h of vacuum pumping in an exsiccator at a reduced pressure of 3-4 mbars to remove solvent residuals from the lipid film that had formed in the vial. The lipid film was dispersed by the addition of 10 mM phosphate buffer (PB) pH 7.0 and homogenized by vigorously vortexing for 10 × 1 min and 10 freeze–thaw cycles. SUVs were formed by sonication of the obtained multilamellar vesicles for 16 min in a strong ultrasonic bath (UTR 200, Hielscher, Germany). The temperature of the water in the ultrasonic bath was adjusted to 35 °C by circulating it through a thermostat to avoid overheating the samples. A weighed amount of the corresponding peptide was dissolved in water resulting in stock solutions with a peptide concentration of 0.5 mg/mL. For the final CD samples, each peptide stock solution was diluted to 29.3 μM and the corresponding lipid dispersion to 1.47 mM in 10 mM PB, resulting in a peptide-to-lipid (P/L) ratio of 1/50.
# […] The samples were measured in a 1-millimeter path length quartz glass cell (Suprasil, Hellma Müllheim, Germany) between 260 and 185 nm at 0.5 nm intervals. Spectra of the liposome samples were recorded at 30 °C, i.e., well above the phase transition temperature of the lipids, using a water-thermostated rectangular cell holder. Three repeat scans at a scan rate of 10 nm min^−1, 8 s response time, and 1 nm bandwidth were averaged for each sample, and the baseline spectrum of the respective peptide-free sample was subtracted from the sample spectrum. CD spectra were smoothened by a Savitzky-Golay filter (convolution width of 15 data points), which is implemented in the Jasco Spectra Analysis software.
# [2] = tested on: Bacillus subtilis subsp. spizizenii (DSM 347), Staphylococcus xylosus (DSM 20267), Escherichia coli (DSM 1116), Acinetobacter sp. (DSM 586); settings: for MIC: irrespective of the bacterial strain (all four strains), Müller-Hinton medium, 20 h at 37 °C, maximum tested 256 µg/mL; for MIC (relative antimicrobial activity): relative activity over two Gram-positive and two Gram-negative strains
# Method: The effect of latarcins against four types of bacteria was determined using a minimum inhibitory concentration (MIC) assay on two Gram-positive strains (Bacillus subtilis subsp. spizizenii and Staphylococcus xylosus) and two Gram-negative strains (Escherichia coli and Acinetobacter sp.). Although the antimicrobial activity of latarcins is well documented, these experiments served to ensure that all studies were performed on molecules that show the expected antimicrobial activity.
# The minimum inhibitory concentration (MIC) was determined as previously reported. For each latarcin, MIC was determined against two Gram-positive strains, namely Bacillus subtilis subsp. spizizenii (DSM 347) and Staphylococcus xylosus (DSM 20267), and two Gram-negative strains: Escherichia coli (DSM 1116) and Acinetobacter sp. (DSM 586). Bacterial cultures were grown in Müller-Hinton medium (MHM) as described previously, and peptides were dissolved in sterile water containing 10% DMSO. The stock solution of peptides with 1024 µg/mL was prepared such that serial dilutions of peptides (from 256 µg/mL to 2 µg/mL) in MHM were prepared in 96-well plates with the penultimate column without peptide to act as positive control (no peptide) and the final column as negative control (no bacteria). Bacterial stock suspension was made with an OD of 0.2 units at 550 nm. This stock solution was further diluted (1:1000 for Gram-negative bacteria and 1:100 for Gram-positive bacteria), and subsequently, 50 µL of the resulting bacterial suspension was added to the wells except the final well to give a final concentration of 10^6 colony-forming units per mL. Afterwards, the 96-well plates were incubated at 37 °C for 20 h, and cellular respiration was detected by adding 20 µL of resazurin solution (200 µg/mL) for an additional 2 h at the same temperature.
Substance,% Helix (CD) [1] [%],MIC [2],MIC (relative antimicrobial activity) [2],"helical fold (CD) in buffer without lipids ([1]; 10 mM phosphate buffer pH 7, no lipids, 30 °C)"
G E TF D K L K E K L K TFYQ K LV E K A ED L K G D L K A K LS-acid [Ltc7],89,> 256 µg/mL,−,
H-GFFGKMKEYFKKFGASFKRRFANLKKRL-NH2 [Ltc5],85,below 4 µg/mL,+++,
H-GLKDKFKSMGEKLKQYIQTWKAKF-NH2 [Ltc4a],94,8 to 32 µg/mL,++,
H-QAFQTFKPDWNKIRYDAMKMQTSLGQMKKRFNL-OH [Ltc6a],65,,+,
H-SWKSMAKKLKEYMEKLKQRA-NH2 [Ltc3a],87,8 to 32 µg/mL,++,ca. 30%
